Measured values reported in patent publication US8410026B2, “Pyridazine fungicides” (Syngenta Crop Protection LLC, priority 2008, dated 2013).

Assays:
[1] = test system: Botryotinia fuckeliana (Botrytis cinerea); test: Botryotinia fuckeliana (Botrytis cinerea) / tomato / preventive (action against Botrytis on tomato); type: in vivo; details: preventive spray, tomato plants cv. Roter Gnom, inoculated 2 days after application, assessed after 3 days incubation, read-out: inhibit fungal infestation
Description: (§1) Botryotinia fuckeliana (Botrytis cinerea)/Tomato/Preventive (Action Against Botrytis on Tomato) 4 weeks old tomato plants cv. Roter Gnom are treated with the formulated test compound in a spray chamber. Two days after application tomato plants are inoculated by spraying a spore suspension on the test plants. After an incubation period of 3 days at 20° C. and 95% r. h. in a greenhouse the disease incidence is assessed.

[2] = test system: Puccinia recondite f. sp. tritici; test: Puccinia recondite f. sp. tritici / wheat / preventive (action against brown rust on wheat); type: in vivo; details: preventive spray, wheat plants cv. Arina, inoculated 1 day after application, assessed 11 days after inoculation, read-out: inhibit fungal infestation
Description: Puccinia recondite f. sp. tritici/Wheat/Preventive (Action Against Brown Rust on Wheat) 1 week old wheat plants cv. Arina are treated with the formulated test compound in a spray chamber. One day after application wheat plants are inoculated by spraying a spore suspension (1×105 uredospores/ml) on the test plants. After an incubation period of 1 day at 20° C. and 95% r. h. plants are kept for 10 days 20° C./18° C. (day/night) and 60% r. h. in a greenhouse. The disease incidence is assessed 11 days after inoculation.

[3] = test system: Mycosphaerella graminicola (Septoria tritici); test: Mycosphaerella graminicola (Septoria tritici) / wheat / preventive (action against Septoria leaf spot on wheat); type: in vivo; details: Zymoseptoria tritici, preventive spray, wheat plants cv. Riband, inoculated 1 day after application, assessed 16-18 days after inoculation, read-out: inhibits fungal infestation
Description: Mycosphaerella graminicola (Septoria tritici)/Wheat/Preventive (Action Against Septoria Leaf Spot on Wheat) 2 weeks old wheat plants cv. Riband are treated with the formulated test compound in a spray chamber. One day after application wheat plants are inoculated by spraying a spore suspension (10^6 conidia/ml) on the test plants. After an incubation period of 1 day at 22° C./21° C. and 95% r. h. plants are kept at 22° C./21° C. and 70% r.h. in a greenhouse. The disease incidence is assessed 16-18 days after inoculation.

Alternaria solani = Alternaria solani / tomato / preventive (action against Alternaria on tomato); type: in vivo; details: preventive spray, tomato plants cv. Roter Gnom, inoculated 2 days after application, assessed after 4 days incubation, read-out: inhibit fungal infestation
Description: as §1, with “Alternaria solani/Tomato/Preventive” for “Botryotinia fuckeliana (Botrytis cinerea)/Tomato/Preventive”, “Alternaria” for “Botrytis”, “4” for “3”, “22° C./18°” for “20°”

[4] = test system: Magnaporthe qrisea (Pyricularia oryzae); test: whole plant or invertebrate; type: in vivo; details: read-out: inhibit fungal infestation
[5] = test system: Uncinula necator (Erysiphe necator); test: Uncinula necator (Erysiphe necator) / grape / preventive (action against powdery mildew on grape); type: in vivo; details: preventive spray, grape seedlings cv. Gutedel, inoculated 1 day after application, assessed after 7 days incubation, read-out: inhibit fungal infestation
Description: Uncinula necator (Erysiphe necator)/Grape/Preventive (Action Against Powdery Mildew on Grape) 5 weeks old grape seedlings cv. Gutedel are treated with the formulated test compound in a spray chamber. One day after application grape plants are inoculated by shaking plants infected with grape powdery mildew above the test plants. After an incubation period of 7 days at 24° C./22° C. and 70% r. h. under a light regime of 14/10 h (light/dark) the disease incidence is assessed.

[6] = test system: Pyrenophora teres (Helminthosporium teres); test: Pyrenophora teres (Helminthosporium teres) / barley / preventive (action against net blotch on barley); type: in vivo; details: preventive spray, barley plants cv. Regina, inoculated 2 days after application, assessed after 4 days incubation, read-out: inhibit fungal infestation
Description: Pyrenophora teres (Helminthosporium teres)/Barley/Preventive (Action Against Net Blotch on Barley) 1-week-old barley plants cv. Regina are treated with the formulated test compound in a spray chamber. Two days after application barley plants are inoculated by spraying a spore suspension (2.6×10^4 conidia/ml) on the test plants. After an incubation period of 4 days at 20° C. and 95% r. h. the disease incidence is assessed.

Structure (SMILES)	inhibition at 200 ppm [1]	inhibition at 200 ppm [2]	inhibition at 200 ppm [3]	inhibition at 200 ppm (Alternaria solani)	inhibition at 200 ppm [4]	inhibition at 200 ppm [5]	inhibition at 200 ppm [6]	melting point
Cc1nnc(Cl)c(-c2c(F)cccc2Cl)c1-c1ccc(Cl)nc1 [I.a.02, 3-chloro-4-(2-chloro-6-fluoro-phenyl)-5-(6-chloro-pyridin-3-yl)-6-methyl-pyridazine]	≥ 80%	≥ 80%	≥ 80%	≥ 80%	≥ 80%	≥ 80%	≥ 80%	–
COc1nnc(C)c(-c2ccc(Cl)nc2)c1-c1c(F)cc(F)cc1F [I.a.12, 4-(6-chloro-pyridin-3-yl)-6-methoxy-3-methyl-5-(2,4,6-trifluoro-phenyl)-pyridazine]	≥ 80%	≥ 80%	–	≥ 80%	–	≥ 80%	≥ 80%	123 to 124 °C
CCc1nnc(Cl)c(-c2c(F)cc(F)cc2F)c1-c1ccc(Cl)nc1 [I.a.14, 3-chloro-5-(6-chloro-pyridin-3-yl)-6-ethyl-4-(2,4,6-trifluoro-phenyl)-pyridazine]	–	≥ 80%	≥ 80%	≥ 80%	≥ 80%	≥ 80%	≥ 80%	125 to 126 °C
CC(C)c1nnc(Cl)c(-c2c(F)cc(F)cc2F)c1-c1ccc(Cl)nc1 [I.a.17, 3-chloro-5-(6-chloro-pyridin-3-yl)-6-isopropyl-4-(2,4,6-trifluoro-phenyl)-pyridazine]	–	–	–	–	–	–	–	146 to 149 °C
COc1cc(F)c(-c2c(Cl)nnc(C)c2-c2ccc(Cl)nc2)c(F)c1 [I.a.20, 3-chloro-5-(6-chloro-pyridin-3-yl)-4-(2,6-difluoro-4-methoxy-phenyl)-6-methyl-pyridazine]	–	≥ 80%	≥ 80%	≥ 80%	≥ 80%	–	≥ 80%	148 to 149 °C
Cc1nnc(Cl)c(-c2c(F)cc(F)cc2F)c1-c1cnc(Cl)c(Cl)c1 [I.g.11, 3-chloro-5-(5,6-dichloro-pyridin-3-yl)-6-methyl-4-(2,4,6-trifluoro-phenyl)-pyridazine]	–	–	–	–	≥ 80%	≥ 80%	–	185 to 188 °C
